# Measured values from patent publication US5707966A, “Antithrombotic agents” (Eli Lilly and Company, priority 1995, dated 1998).
# Structures can show the parent of a compound that is named as a salt. Where two headings read alike, the source gives them in different places.
# Columns and labels:
# Format in all cases: biochemical
# Human Thrombin = Human Thrombin (Homo sapiens, UniProt P00734); assay: Inhibition of amidase activity of thrombin (Kass)
# Human plasma [1] = assay: Human plasma anticoagulation, activated partial thromboplastin time (APTT); settings: concentration required to double the APTT, linear extrapolation
# Method: (§1) Dog plasma and rat plasma is obtained from conscious mixed-breed hounds (either sex, Hazelton-LRE, Kalamazoo, Mich., U.S.A.) or from anesthetized male Sprague-Dawley rats (Harlan Sprague-Dawley, Inc., Indianapolis, Ind., U.S.A.) by venipuncture into 3.8 percent citrate. Fibrinogen is prepared from in-date ACD human blood as the fraction I-2 according to previous procedures and specifications. […] Human fibrinogen is also purchased as 98 percent pure/plasmin free from American Diagnostica, Greenwich, Conn. Coagulation reagents ACTIN, Thromboplastin, and Human plasma are from Baxter Healthcare Corp., Dade Division, Miami, Fla. Bovine thrombin from Parke-Davis ([…], Mich.) is used for coagulation assays in plasma.
# (§2) Coagulation assay procedures are as previously described. […] A CoAScreener coagulation instrument (American LABor, Inc.) is used for all coagulation assay measurements. The prothrombin time (PT) is measured by adding 0.05 mL saline and 0.05 mL Thromboplastin-C reagent to 0.05 mL test plasma. The activated partial thromboplastin time (APTT) is measured by incubation of 0.05 mL test plasma with 0.05 mL Actin reagent for 120 seconds followed by 0.05 mL CaCl2 (0.02M). The thrombin time (TT) is measured by adding 0.05 mL saline and 0.05 mL thrombin (10 NIH units/mL) to 0.05 mL test plasma. The compounds of Formula I are added to human or animal plasma over a wide range of concentrations to determine prolongation effects on the APTT, PT, and TT assays. Linear extrapolations are performed to estimate the concentrations required to double the clotting time for each assay.
# factor Xa = molecular target: T1, factor Xa (Homo sapiens, UniProt P00742); assay: Kass with factor Xa, chromogenic substrate; settings: substrate N-Benzoyl-Ile-Glu-Gly-Arg-p-nitroanilide
# T1 construct: Human factors X, Xa, IXa, XIa, and XIIa are purchased; purchased Enzyme Research Laboratories, South Bend, Ind
# Method: (§3) By substantially following the procedures described above for human thrombin, and using other human blood coagulation system serine proteases and proteases of the fibrinolytic system with the appropriate chromogenic substrates, identified below, selectivity of the compounds of the present invention with respect to the coagulation factor serine proteases and with respect to the fibrinolytic system serine proteases are evaluated as well as their substantial lack of interference with serine proteases of the fibrinolytic system. Thrombin inhibitors preferably should spare fibrinolysis induced by urokinase, tissue plasminogen activator (t-PA) and streptokinase. This would be important to the therapeutic use of such agents as an adjunct to streptokinase, t-PA or urokinase thrombolytic therapy and to the use of such agents as an endogenous fibrinolysis-sparing (with respect to t-PA and urokinase) antithrombotic agent. In addition to the lack of interference with the amidase activity of the fibrinolytic proteases, such fibrinolytic system sparing can be studied by the use of human plasma clots and their lysis by the respective fibrinolytic plasminogen activators.
# (§4) Human factors X, Xa, IXa, XIa, and XIIa are purchased from Enzyme Research Laboratories, South Bend, Ind.; human urokinase from Leo Pharmaceuticals, Denmark; and recombinant activated Protein C (aPC) is prepared at Eli Lilly and Co. substantially according to U.S. Patent No. 4,981,952. Chromogenic substrates: N-Benzoyl-Ile-Glu-Gly-Arg-p-nitroanilide (for factor Xa); N-Cbz-D-Arg-Gly-Arg-p-nitroanilide (for factor IXa assay as the factor Xa substrate); Pyroglutamyl-Pro-Arg-p-nitroanilide (for Factor XIa and for aPC); H-D-Pro-Phe-Arg-p-nitroanilide (for factor XIIa); and Pyroglutamyl-Gly-Arg-p-nitroanilide (for urokinase); are purchased from KabiVitrum, Stockholm, Sweden, or from Midwest Biotech, Fishers, Ind. Bovine trypsin is purchased from Worthington Biochemicals, Freehold, N.J., and human plasma kallikrein from Kabi Vitrum, Stockholm, Sweden. Chromogenic substrate H-D-Pro-Phe-Arg-p-nitroanilide for plasma kallikrein is purchased from Kabi Vitrum, Stockholm, Sweden. N-Benzoyl-Phe-Val-Arg-p-nitroanilide, the substrate for human thrombin and for trypsin, is synthesized according to procedures described above for the compounds of the present invention, using known methods of peptide coupling from commercially available reactants or purchased from Midwest Biotech, Fishers, Ind.
# Human plasma [2] = assay: Human plasma anticoagulation, thrombin time (TT); settings: concentration required to double the thrombin time, linear extrapolation
# Method: as §1, §2
# Human plasma [3] = assay: Human plasma anticoagulation, prothrombin time (PT); settings: concentration required to double the PT, linear extrapolation
# Method: as §1, §2
# Bovine trypsin = molecular target: T2, Bovine trypsin (Bos taurus, UniProt P00760); assay: Kass with trypsin, chromogenic substrate; settings: substrate N-Benzoyl-Phe-Val-Arg-p-nitroanilide
# T2 construct: Bovine trypsin is purchased; purchased Worthington Biochemicals, Freehold, N.J
# T2 sequence (P00760 24-246): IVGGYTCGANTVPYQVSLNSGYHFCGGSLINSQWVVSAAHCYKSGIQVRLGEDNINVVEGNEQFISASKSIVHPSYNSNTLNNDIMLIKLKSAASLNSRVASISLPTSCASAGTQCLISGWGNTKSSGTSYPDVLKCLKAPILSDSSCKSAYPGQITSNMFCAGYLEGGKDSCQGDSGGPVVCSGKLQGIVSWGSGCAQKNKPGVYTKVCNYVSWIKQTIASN
# Method: as §3, §4
# [4] = mean over a range of concentrations, […]
# T1 sequence (P00742 235-488 limits assumed): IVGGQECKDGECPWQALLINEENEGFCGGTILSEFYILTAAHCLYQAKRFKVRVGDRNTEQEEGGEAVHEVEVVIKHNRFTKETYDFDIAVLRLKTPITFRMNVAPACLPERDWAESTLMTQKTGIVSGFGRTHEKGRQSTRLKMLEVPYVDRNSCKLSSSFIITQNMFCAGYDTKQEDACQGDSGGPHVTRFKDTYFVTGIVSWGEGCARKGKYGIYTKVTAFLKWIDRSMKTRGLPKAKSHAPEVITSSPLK
# T1 sequence (P00742 41-179 partner limits assumed): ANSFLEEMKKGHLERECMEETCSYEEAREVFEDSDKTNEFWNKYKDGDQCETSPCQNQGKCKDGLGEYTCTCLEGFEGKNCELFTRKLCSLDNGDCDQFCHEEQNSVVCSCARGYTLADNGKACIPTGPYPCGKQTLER
Compound,Kass Human Thrombin (Human Thrombin; [4]),Human Plasma Anticoagulation 2× Clotting time APTT (Human plasma [1]),Kass Xa (factor Xa),Human Plasma Anticoagulation 2× Clotting time TT (Human plasma [2]),Human Plasma Anticoagulation 2× Clotting time PT (Human plasma [3]),Kass Human Thrombin (Human Thrombin),Kass Trypsin (Bovine trypsin)
"Nc1ccc(CNC(=O)[C@@H]2CCCN2C(=O)[C@@H](CC2CCCCC2)NCC(=O)O)c(F)c1 [Example 64, HO2 CCH2 -D-Cha-Pro-4-NHCH2 -3-F-C6 H3 NH2.HCl]",15 × 10^6 (L/mole),900 ng/mL,0.01 × 10^6 (L/mole),23 ng/mL,650 ng/mL,–,–
"NCc1ccc(CNC(=O)[C@@H]2CCCN2C(=O)[C@@H](CC2CCCCC2)NCC(=O)O)cc1 [Example 78, HO2 CCH2 -D-Cha-pro-4-NHCH2 C6 H4 CH2 NH2.HCl]",–,430 ng/mL,–,46 ng/mL,760 ng/mL,11,8.6 × 10^6 (L/mole)
"NCC1CCC(CNC(=O)[C@@H]2CCCN2C(=O)[C@@H](CC2CCCCC2)NCC(=O)O)CC1 (stereo partly drawn) [Example 79, HO2 CCH2 -D-Cha-Pro-4-NHCH2 C6 H10 CH2 NH2.HCl]",2.0 × 10^6 (L/mole),"1,700 ng/mL",–,140 ng/mL,"2,400 ng/mL",–,0.24 × 10^6 (L/mole)
"CCS(=O)(=O)N[C@H](CC1CCCCC1)C(=O)N1CCC[C@H]1C(=O)NCc1ccc(C(=N)N)cc1.Cl [Example 80, EtSO2 -D-Cha-Pro-4-NHCH2 C6 H4 C(NH)NH2.HCl]","1,700 × 10^6 (L/mole)",40 ng/mL,–,4 ng/mL,130 ng/mL,–,90 × 10^6 (L/mole)
"CCS(=O)(=O)N[C@H](CC1CCCCC1)C(=O)N1CCC[C@H]1C(=O)NCc1ccc(CN)cc1 [Example 81, EtSO2 -D-Cha-Pro-4-NHCH2 C6 H4 CH2 NH2.HCl]",5.3 × 10^6 (L/mole),"1,500 ng/mL",–,110 ng/mL,"2,700 ng/mL",–,2.1 × 10^6 (L/mole)
"CCS(=O)(=O)N[C@H](CC1CCCCC1)C(=O)N1CCC[C@H]1C(=O)NCc1ccnc(N)c1 [Example 83, EtSO2 -D-Cha-Pro-4-NHCH2 -2-aminopyridine.HCl]",2.4 × 10^6 (L/mole),"1,000 ng/mL",–,91 ng/mL,"1,300 ng/mL",–,0.03 × 10^6 (L/mole)
"CCS(=O)(=O)N[C@H](CC1CCCCC1)C(=O)N1CCC[C@H]1C(=O)NCc1ccc(N)nc1 [Example 84, EtSO2 -D-Cha-Pro-5-NHCH2 -2-aminopyridine.HCl]",2.9 × 10^6 (L/mole),"1,500 ng/mL",–,110 ng/mL,"1,900 ng/mL",–,0.07 × 10^6 (L/mole)
"N=C(N)c1ccc(CNC(=O)[C@@H]2CCCN2C(=O)[C@@H](CC2CCCCC2)NCCCC(=O)O)cc1 [Example 85, HOOCCH2 CH2 CH2 -D-Cha-pro-p-NHCH2 C6 H4 C(NH)NH2.HCl]",265 × 10^6 (L/mole),100 ng/mL,–,4.9 ng/mL,197 ng/mL,–,30.8 × 10^6 (L/mole)
"N=C(N)c1ccc(CNC(=O)[C@@H]2CCCN2C(=O)[C@H](NCC(=O)O)C2CCCCC2)cc1 [Example 86, HOOCCH2 -D-Chg-Pro-p-NHCH2 C6 H4 C(NH)NH2.HCl]",–,81 ng/mL,0.63 × 10^6 (L/mole),4 ng/mL,180 ng/mL,200,–
"N=C(N)c1ccc(CNC(=O)[C@@H]2CCCN2C(=O)[C@@H](CCC2CCCCC2)NCC(=O)O)cc1 [Example 88, HOOCCH2 -D-hCha-Pro-p-NHCH2 C6 H4 C(NH)NH2.HCl]",410 × 10^6 (L/mole),100 ng/mL,3.9 × 10^6 (L/mole),4 ng/mL,200 ng/mL,–,–
"N=C(N)c1ccc(CNC(=O)CN(CCc2ccccc2)C(=O)CNCC(=O)O)cc1 [Example 89, HOOCCH2 -Gly-N-C6 H5 CH2 CH2 Gly-p-NHCH2 C6 H4 C(NH)NH2.HCl]",0.14 × 10^6 (L/mole),"51,000 ng/mL",0.071 × 10^6 (L/mole),570 ng/mL,"37,000 ng/mL",–,–
"CCC(CC)C(=O)N[C@@H](CCC(=O)O)C(=O)N1CCC[C@H]1C(=O)NCc1ccc(C(=N)N)cc1 [Example 90, (C2 H5)2 CHCO-Glu-Pro-p-NHCH2 C6 H4 C(NH)NH2.HCl]",0.61 × 10^6 (L/mole),"14,500 ng/mL",0.002 × 10^6 (L/mole),330 ng/mL,"14,600 ng/mL",–,–
"CCC(CC)C(=O)N[C@@H](CCS(C)(=O)=O)C(=O)N1CCC[C@H]1C(=O)NCc1ccc(C(=N)N)cc1 [Example 91, (C2 H5)2 CHCO-Met(O2)-pro-p-NHCH2 C6 H4 C(NH)NH2.HCl]",3.6 × 10^6 (L/mole),"3,000 ng/mL",0.007 × 10^6 (L/mole),63 ng/mL,"3,500 ng/mL",–,–
"CS(=O)(=O)CC(=O)N[C@H](CC1CCCCC1)C(=O)N1CCC[C@H]1C(=O)NCc1ccc(C(=N)N)cc1 [Example 92, MeSO2 CH2 CO-D-Cha-Pro-p-NHCH2 C6 H4 C(NH)NH2.HCl]",130 × 10^6 (L/mole),210 ng/mL,–,8.9 ng/mL,340 ng/mL,–,7.7 × 10^6 (L/mole)
HOOCCH2 -D-hPhe-Pro-p-NHCH2 C6 H4 C(NH)NH2.HCl [Example 87],30 × 10^6 (L/mole),260 ng/mL,2.5 × 10^6 (L/mole),9 ng/mL,310 ng/mL,–,–
